For assay [1], the target named is T1, WT KCa3.1 (Homo sapiens, UniProt O15554+P0DP23). The following applies: 100 µM EBIO; control current at 250 nM free Ca2+; wild type channel.
In assay [2] the test system is KCa3.1 over KCa2 channels. The following applies: first generation activators; ref Christophersen and Wulff, 2015; cited from earlier work.
In assay [3] the test system is S372 in KCa3.1 or the corresponding S632 residue in KCa2.3 to arginine. More on the design: method as in Brown et al., 2017. The following applies: ref Brown et al., 2017; cited from earlier work.
The test system of the next assay is KCa2.2. More on the design: method as in Sankaranarayanan et al., 2009. The following applies: ref Sankaranarayanan et al., 2009; cited from earlier work.
The next assay has as its system KCa3.1. The following applies: cited from earlier work; for EC50: ref Coleman et al., 2014, read-out: Potency of KCa3.1 activation.
A further assay has as its system KCa2. Details: method as in Coleman et al., 2014. The following applies: ref Coleman et al., 2014; read-out: Potency of KCa2 activation; cited from earlier work.
The next assay concerns KCa2.3. Details: method as in Coleman et al., 2014. The following applies: ref Coleman et al., 2014; read-out: Potency of KCa2.3 activation; cited from earlier work.
Assay [4] deals with T1, WT KCa3.1. Nature of the assay: Inside-out patch-clamp calcium concentration-response. Format: cell-based. More on the design: expressed in transfected cells; host or cells: CHO cells, transient transfection. How it is done:
(§1) All experiments were performed in either the inside-out or the whole-cell configuration of the patch-clamp technique on either transiently transfected CHO cells or Human Embryonic Kidney (HEK) cell lines stably expressing hKCa3.1 or hKCa2.2 ([Sankaranarayanan et al., 2009]). All cells were cultured in Dulbecco’s modified Eagle’s medium supplemented with 10% fetal calf serum. […]
(§2) For manual whole-cell experiments, the extracellular solution contained 160 mM NaCl, 4.5 mM KCl, 2 mM CaCl2, 1 mM MgCl2, and 10 mM HEPES (pH 7.4, 300 mOsm). Solutions on the intracellular side contained 154 mM KCl, 10 mM HEPES, 10 mM EGTA, 1.75 mM MgCl2, and 5.9 mM CaCl2 for a calculated free Ca^2+ concentration of 250 nM (pH 7.2, 290 mOsm). […] Intracellular solutions contained 154 mM KCl, 10 mM HEPES, 10 mM EGTA, 1.75 mM MgCl2, and varying amounts of CaCl2 for calculated free Ca^2+ concentrations of […] (pH 7.2, 280–300 mOsm). Free Ca^2+ concentrations were calculated using the July 3, 2009 online version of MaxChelator (https://somapp.ucdmc.ucdavis.edu/pharmacology/bers/maxchelator/webmaxc/webmaxcS.htm) assuming a temperature of 25°C, a pH of 7.2, and an ionic strength of 160 mM. […]
(Patch clamp records ionic current or voltage across a cell membrane.)

The target in assay [5] is T2, KCa3.1 S181A-L185A double mutant (Homo sapiens, UniProt O15554+P0DP23, L185A/S181A).
T2 construct: expressed in transfected cells; host or cells: CHO cells, transient transfection
Described as above. Format: cell-based. As for the experimental part:
as §1, §2

In the case of `CCn1c(=O)[nH]c2ccccc21` [EBIO], the “Increase of control current” value on WT KCa3.1 [1] is 5–10 fold. The “Selectivity for KCa3.1 over KCa2 channels” value (“Selectivity” below) in assay [2] was 5–10 fold. In assay [3], the “Change of activator potency by S372R (KCa3.1) / S632R (KCa2.3) mutation” value is reported as “strong reduction in potency”.

As for `O=C1Nc2c(ccc(Cl)c2Cl)C1=NO` [NS309, 6,7-dichloro-1H-indole-2,3-dione 3-oxime], the “Selectivity” value in assay [2] is 5–10 fold. Besides, the “Change of activator potency by S372R (KCa3.1) / S632R (KCa2.3) mutation” value in assay [3] is listed as “strong reduction in potency”.

`Nc1nc2c(ccc3ccccc32)s1` [SKA-31, Naphtho[1,2-d]thiazol-2-ylamine]: the “Activation of KCa2.2 at 10 µM” value in the assay with KCa2.2 is recorded as “maximally activates”. For the same compound, the “Activation of KCa3.1 at 10 µM” value in the assay on KCa3.1 (10 µM, ref Sankaranarayanan et al., 2009) was “maximally activates”. In assay [2], the “Selectivity” value was 5–10 fold.

As to `Cc1nc2c(ccc3ccccc32)s1` [SKA-74, 2-methylnaphtho[1,2-d]thiazole], the EC50 in the assay on KCa3.1 and in the assay with KCa2 was around 30 µM in each case.

Take `Nc1nc(-c2cccc3ccccc23)cs1` [SKA-75]: the EC50 with KCa3.1 and in the assay with KCa2.3 was around 30 µM each time.

As for `Nc1nc(-c2ccc3ccccc3c2)cs1` [SKA-76], the results for the EC50 in the assay with KCa3.1 and in the assay on KCa2.3 were around 50 µM and around 25 µM, respectively.

Turning to `[Ca]` [calcium], the EC50 on WT KCa3.1 [4] was determined as 437 nM; in assay [5], 392 nM. Further, the nH calcium concentration-response is given as 1.98 at WT KCa3.1 [4] and 1.39 in assay [5].

(Values after publication PMC6764326, “The Trials and Tribulations of Structure Assisted Design of KCa Channel Activators” (Frontiers in Pharmacology, 2019).)
